Experimental data as given in US8981094B2, “Piperidine/piperazine derivatives” (Janssen Pharmaceutica N.V., priority 2007, dated 2015).

Experiments:
[1] = tested on: plasma triglyceride levels; assay: Plasma triglyceride profile after liquid fat meal in dogs; format: in vivo; conditions: liquid meal 18% fat, compound given orally, compared with own profile without compound
Protocol: (§1) Dogs were deprived from food for a period of 22 hours. At time 0, animals were given a liquid meal, containing 18% fat (w/w), by gavage with a stomach tube. The test compound was given orally together with the meal. Afterwards, a postprandial plasma profile was determined for GLP-1. Therefore, blood was collected at predetermined time intervals in ice-cooled Vacutainers EDTA-plasma tubes and GLP-1 levels were measured in the samples taken at 0 hour (just before the meal) and at 0.5, 1, 2, 4, 6, 8 and 24 hours after dosing. Six dogs (3 males and 3 females) were included per dosage group and the plasma GLP-1 profile was compared with their own GLP-1 profile previously determined in the same conditions but without administration of the test compound.
In addition to the plasma GLP-1 profile, also the plasma triglyceride profile can be determined and compared with their own triglyceride profile previously determined in the same conditions but without administration of the test compound. After administration of compound 223, triglyceride levels decreased.

human DGAT1 = target: T1, human DGAT1 (Homo sapiens, UniProt O75907); assay: Inhibition of DGAT1 activity, FlashPlate assay with DGAT1 membrane preparations and substrate micelles; format: biochemical; conditions: pIC50 = -logIC50, IC50 values expressed in M
T1 construct: FLAG (N); made in house; host or cells: SF9 insect cells (pFastBac baculovirus); total cell membranes
T1 sequence (O75907 1-488): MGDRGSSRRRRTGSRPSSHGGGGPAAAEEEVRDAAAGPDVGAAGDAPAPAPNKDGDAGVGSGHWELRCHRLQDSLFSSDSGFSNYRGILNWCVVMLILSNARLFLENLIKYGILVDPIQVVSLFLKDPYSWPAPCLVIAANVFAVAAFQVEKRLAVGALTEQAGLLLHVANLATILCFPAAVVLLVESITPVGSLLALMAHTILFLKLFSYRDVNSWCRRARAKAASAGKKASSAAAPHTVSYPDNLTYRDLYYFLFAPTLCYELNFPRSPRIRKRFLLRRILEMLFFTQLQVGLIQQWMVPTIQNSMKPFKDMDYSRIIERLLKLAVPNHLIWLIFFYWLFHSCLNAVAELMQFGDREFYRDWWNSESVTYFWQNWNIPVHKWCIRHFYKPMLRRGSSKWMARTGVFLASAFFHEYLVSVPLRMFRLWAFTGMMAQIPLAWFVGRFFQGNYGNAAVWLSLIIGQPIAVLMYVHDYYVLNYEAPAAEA
How it was run: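 FLAG-tagged human DGAT1 membranes (expressed in Sf9 cells) were incubated 120 min at 37° C. in 50 mM Tris-HCl pH 7.4 with 150 mM MgCl2, 1 mM EDTA, 0.2% BSA, 50 μM DAG micelles (PC/PS) and 8.4 μM [^3H]-oleoylCoA. The reaction was stopped with N-ethylmaleimide and read as FlashPlate radioluminescence. Responses were normalized to enzyme/no-enzyme controls to fit dose-response curves.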

GLP-1 plasma levels = assay: In vivo study for effect of test compound on GLP-1 plasma levels (postprandial profile); conditions: dogs fasted 22 hours, liquid meal 18% fat, compound given orally with the meal; compared with own profile without compound; compound 223 at 0.3 mg/kg in FIG. 1
Protocol: B) In Vivo Study for Effect of Test Compound on GLP-1 Plasma Levels
Elevation of GLP-1 plasma levels by a DGAT inhibitor was studied as follows:
as §1
GLP-1 determinations in plasma were performed with a Glucagon-like peptide-1 (active) ELISA kit 96-well plate of LINCO Research.

- melting point: 252.22 °C
- IC50 (human DGAT1): 0.02 µM
SMILES: COc1ccc(CC(=O)Nc2ccc(N3CCN(C(=O)Nc4c(Cl)cc(CN5CCCC5)cc4Cl)CC3)cc2)cc1 [Compound 223]
- plasma triglyceride levels (profile) [1]: decreased
- GLP-1 plasma levels (postprandial plasma profile) (GLP-1 plasma levels): increase GLP-1 levels
